Source: PubChem BioAssay (NCI)
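A five-concentration, 48-hour dose response in 96-well plates underlies each endpoint, interpolated linearly between surrounding concentrations. TGI marks complete inhibition of growth.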

Legend:
Assay in all cases: NCI-60 cell line screen, 48 h
786-0 renal = system: 786-0 renal
A498 renal = system: A498 renal
A549 NSCLC = system: A549 NSCLC
ACHN renal = system: ACHN renal
BT-549 breast = system: BT-549 breast
CAKI-1 renal = system: CAKI-1 renal
CCRF-CEM leukemia = system: CCRF-CEM leukemia
COLO 205 colon = system: COLO 205 colon
DU-145 prostate = system: DU-145 prostate
EKVX NSCLC = system: EKVX NSCLC
HCC-2998 colon = system: HCC-2998 colon
HCT-116 colon = system: HCT-116 colon
HCT-15 colon = system: HCT-15 colon
HL-60(TB) leukemia = system: HL-60(TB) leukemia
HOP-62 NSCLC = system: HOP-62 NSCLC
HOP-92 NSCLC = system: HOP-92 NSCLC
HS 578T breast = system: HS 578T breast
HT29 colon = system: HT29 colon
IGROV1 ovarian = system: IGROV1 ovarian
K-562 leukemia = system: K-562 leukemia
KM12 colon = system: KM12 colon
LOX IMVI melanoma = system: LOX IMVI melanoma
M14 melanoma = system: M14 melanoma
MALME-3M melanoma = system: MALME-3M melanoma
MDA-MB-231 breast = system: MDA-MB-231 breast
MDA-MB-435 = system: MDA-MB-435
MDA-N = system: MDA-N
MOLT-4 leukemia = system: MOLT-4 leukemia
NCI-H226 lung = system: NCI-H226 lung
NCI-H23 lung = system: NCI-H23 lung
NCI-H460 lung = system: NCI-H460 lung
NCI-H522 lung = system: NCI-H522 lung
OVCAR-3 ovarian = system: OVCAR-3 ovarian
OVCAR-4 ovarian = system: OVCAR-4 ovarian
OVCAR-5 ovarian = system: OVCAR-5 ovarian
PC-3 prostate = system: PC-3 prostate
RPMI-8226 leukemia = system: RPMI-8226 leukemia
SF-268 CNS = system: SF-268 CNS
SF-295 CNS = system: SF-295 CNS
SK-MEL-2 melanoma = system: SK-MEL-2 melanoma
SK-MEL-28 melanoma = system: SK-MEL-28 melanoma
SK-MEL-5 melanoma = system: SK-MEL-5 melanoma
SK-OV-3 ovarian = system: SK-OV-3 ovarian
SN12C renal = system: SN12C renal
SNB-19 CNS = system: SNB-19 CNS
SNB-75 CNS = system: SNB-75 CNS
SR leukemia = system: SR leukemia
SW-620 colon = system: SW-620 colon
T-47D breast = system: T-47D breast
TK-10 renal = system: TK-10 renal
U251 CNS = system: U251 CNS
UACC-257 melanoma = system: UACC-257 melanoma
UACC-62 melanoma = system: UACC-62 melanoma
UO-31 renal = system: UO-31 renal
MCF7 breast = system: MCF7 breast
NCI/ADR-RES ovarian = system: NCI/ADR-RES ovarian
OVCAR-8 ovarian = system: OVCAR-8 ovarian
RXF 393 renal = system: RXF 393 renal
SF-539 CNS = system: SF-539 CNS

Cc1cccc(/C=C2\CCCCCC2=O)c1
TGI (786-0 renal): > 100 µM
TGI (A498 renal): > 100 µM
TGI (A549 NSCLC): > 100 µM
TGI (ACHN renal): > 100 µM
TGI (BT-549 breast): > 100 µM
TGI (CAKI-1 renal): > 100 µM
TGI (CCRF-CEM leukemia): 82.8 µM
TGI (COLO 205 colon): > 100 µM
TGI (DU-145 prostate): > 100 µM
TGI (EKVX NSCLC): > 100 µM
TGI (HCC-2998 colon): > 100 µM
TGI (HCT-116 colon): > 100 µM
TGI (HCT-15 colon): > 100 µM
TGI (HL-60(TB) leukemia): > 100 µM
TGI (HOP-62 NSCLC): > 100 µM
TGI (HOP-92 NSCLC): > 100 µM
TGI (HS 578T breast): > 100 µM
TGI (HT29 colon): > 100 µM
TGI (IGROV1 ovarian): > 100 µM
TGI (K-562 leukemia): > 100 µM
TGI (KM12 colon): > 100 µM
TGI (LOX IMVI melanoma): > 100 µM
TGI (M14 melanoma): > 100 µM
TGI (MALME-3M melanoma): > 100 µM
TGI (MDA-MB-231 breast): > 100 µM
TGI (MDA-MB-435): > 100 µM
TGI (MDA-N): > 100 µM
TGI (MOLT-4 leukemia): > 100 µM
TGI (NCI-H226 lung): > 100 µM
TGI (NCI-H23 lung): > 100 µM
TGI (NCI-H460 lung): > 100 µM
TGI (NCI-H522 lung): > 100 µM
TGI (OVCAR-3 ovarian): > 100 µM
TGI (OVCAR-4 ovarian): > 100 µM
TGI (OVCAR-5 ovarian): > 100 µM
TGI (PC-3 prostate): > 100 µM
TGI (RPMI-8226 leukemia): > 100 µM
TGI (SF-268 CNS): > 100 µM
TGI (SF-295 CNS): > 100 µM
TGI (SK-MEL-2 melanoma): > 100 µM
TGI (SK-MEL-28 melanoma): > 100 µM
TGI (SK-MEL-5 melanoma): > 100 µM
TGI (SK-OV-3 ovarian): > 100 µM
TGI (SN12C renal): > 100 µM
TGI (SNB-19 CNS): > 100 µM
TGI (SNB-75 CNS): > 100 µM
TGI (SR leukemia): > 100 µM
TGI (SW-620 colon): > 100 µM
TGI (T-47D breast): > 100 µM
TGI (TK-10 renal): > 100 µM
TGI (U251 CNS): > 100 µM
TGI (UACC-257 melanoma): > 100 µM
TGI (UACC-62 melanoma): > 100 µM
TGI (UO-31 renal): > 100 µM

C=[N+](CNC(=O)CNC(=O)C(Cc1ccccc1)NC(=O)OC(C)(C)C)C(=O)CNC(=O)C(Cc1ccccc1)NC(=O)OC(C)(C)C (stereo not given)
TGI (786-0 renal): > 100 µM
TGI (A498 renal): > 100 µM
TGI (A549 NSCLC): > 100 µM
TGI (ACHN renal): > 100 µM
TGI (CAKI-1 renal): > 100 µM
TGI (CCRF-CEM leukemia): > 100 µM
TGI (COLO 205 colon): > 100 µM
TGI (DU-145 prostate): > 100 µM
TGI (EKVX NSCLC): > 100 µM
TGI (HCC-2998 colon): > 100 µM
TGI (HCT-116 colon): > 100 µM
TGI (HCT-15 colon): > 100 µM
TGI (HOP-62 NSCLC): > 100 µM
TGI (HOP-92 NSCLC): > 100 µM
TGI (HS 578T breast): > 100 µM
TGI (HT29 colon): > 100 µM
TGI (IGROV1 ovarian): > 100 µM
TGI (K-562 leukemia): > 100 µM
TGI (KM12 colon): > 100 µM
TGI (LOX IMVI melanoma): > 100 µM
TGI (M14 melanoma): > 100 µM
TGI (MALME-3M melanoma): > 100 µM
TGI (MCF7 breast): > 100 µM
TGI (MDA-MB-231 breast): > 100 µM
TGI (MDA-MB-435): > 100 µM
TGI (MDA-N): > 100 µM
TGI (MOLT-4 leukemia): > 100 µM
TGI (NCI-H226 lung): > 100 µM
TGI (NCI-H23 lung): > 100 µM
TGI (NCI-H460 lung): > 100 µM
TGI (NCI-H522 lung): > 100 µM
TGI (NCI/ADR-RES ovarian): > 100 µM
TGI (OVCAR-3 ovarian): > 100 µM
TGI (OVCAR-4 ovarian): > 100 µM
TGI (OVCAR-5 ovarian): > 100 µM
TGI (OVCAR-8 ovarian): > 100 µM
TGI (PC-3 prostate): > 100 µM
TGI (RPMI-8226 leukemia): > 100 µM
TGI (RXF 393 renal): > 100 µM
TGI (SF-268 CNS): > 100 µM
TGI (SF-295 CNS): > 100 µM
TGI (SF-539 CNS): > 100 µM
TGI (SK-MEL-2 melanoma): > 100 µM
TGI (SK-MEL-28 melanoma): > 100 µM
TGI (SK-MEL-5 melanoma): > 100 µM
TGI (SK-OV-3 ovarian): > 100 µM
TGI (SN12C renal): > 100 µM
TGI (SNB-19 CNS): > 100 µM
TGI (SNB-75 CNS): > 100 µM
TGI (SR leukemia): > 100 µM
TGI (SW-620 colon): > 100 µM
TGI (T-47D breast): > 100 µM
TGI (UACC-257 melanoma): > 100 µM
TGI (UACC-62 melanoma): > 100 µM
TGI (UO-31 renal): > 100 µM

N#C/C=C\c1ccc(-c2cc(C(F)(F)F)cc(C(F)(F)F)c2)o1
TGI (786-0 renal): 70.5 µM
TGI (A498 renal): 61.3 µM
TGI (A549 NSCLC): > 100 µM
TGI (ACHN renal): > 100 µM
TGI (BT-549 breast): 76.8 µM
TGI (CAKI-1 renal): > 100 µM
TGI (CCRF-CEM leukemia): > 100 µM
TGI (COLO 205 colon): > 100 µM
TGI (DU-145 prostate): > 100 µM
TGI (EKVX NSCLC): > 100 µM
TGI (HCC-2998 colon): > 100 µM
TGI (HCT-116 colon): > 100 µM
TGI (HL-60(TB) leukemia): 41.4 µM
TGI (HOP-62 NSCLC): 47.3 µM
TGI (HOP-92 NSCLC): 50 µM
TGI (HS 578T breast): 54.8 µM
TGI (HT29 colon): > 100 µM
TGI (IGROV1 ovarian): > 100 µM
TGI (K-562 leukemia): > 100 µM
TGI (KM12 colon): > 100 µM
TGI (LOX IMVI melanoma): > 100 µM
TGI (M14 melanoma): > 100 µM
TGI (MALME-3M melanoma): > 100 µM
TGI (MCF7 breast): > 100 µM
TGI (MDA-MB-231 breast): > 100 µM
TGI (MDA-MB-435): 18.5 µM
TGI (MDA-N): 71.6 µM
TGI (MOLT-4 leukemia): > 100 µM
TGI (NCI-H226 lung): > 100 µM
TGI (NCI-H23 lung): 30.1 µM
TGI (NCI-H460 lung): > 100 µM
TGI (NCI-H522 lung): > 100 µM
TGI (NCI/ADR-RES ovarian): > 100 µM
TGI (OVCAR-3 ovarian): > 100 µM
TGI (OVCAR-4 ovarian): > 100 µM
TGI (OVCAR-5 ovarian): > 100 µM
TGI (OVCAR-8 ovarian): 58.5 µM
TGI (PC-3 prostate): > 100 µM
TGI (RPMI-8226 leukemia): > 100 µM
TGI (RXF 393 renal): > 100 µM
TGI (SF-268 CNS): 69.7 µM
TGI (SF-295 CNS): 46 µM
TGI (SF-539 CNS): 26.6 µM
TGI (SK-MEL-2 melanoma): 41 µM
TGI (SK-MEL-28 melanoma): > 100 µM
TGI (SK-MEL-5 melanoma): 43.1 µM
TGI (SK-OV-3 ovarian): > 100 µM
TGI (SN12C renal): > 100 µM
TGI (SNB-19 CNS): > 100 µM
TGI (SNB-75 CNS): 39.8 µM
TGI (SR leukemia): 40.7 µM
TGI (SW-620 colon): > 100 µM
TGI (U251 CNS): 27.4 µM
TGI (UACC-257 melanoma): > 100 µM
TGI (UACC-62 melanoma): 62.8 µM
TGI (UO-31 renal): > 100 µM
